“And” between values parts separate entries of the source, which are not always exact repeats. Equal values may be shown once. Read-outs that look alike come from different tables or passages of the source.
What was measured:
In vivo PK study in mice = details: for concentration at time point (concentration-time data, Supplementary Fig. 8): po 5 mg/kg, individual mice 1-3
SET-2 cells = assay: Cell proliferation assay (CCK-8), SET-2 cells; assay type: cell-based, human
HEL cells = assay: Cell proliferation assay (CCK-8), HEL cells; assay type: cell-based, human; details: for Inhibition (%): single wells, replicates 1 and 2
[1] = Chemical stability in DMSO stock solution (HPLC purity); assay type: physicochemical; details: mean±SD
Excerpt: compounds were formulated in the solubilizing vehicle (5% DMSO/30% PEG400/65% […]
safety to the mice in the test.
6. What was the sample dissolved in for the in vitro and in vivo experiments? Response: The solvent information for the in vitro and in vivo experiments has been added in the revised manuscript. […]
7. Was the stability of the different compounds assessed and compared to Fedratinib? This is generally a critical point in macrocyclic studies. […]
in DMSO stock solution. Test compounds were incubated at room temperature and 60 ℃, respectively, for 72 h, and their purities (%) were determined using HPLC equipped with a CORTECS C18 column (4.6*50 mm, 2.7 μm particle size) and a UV/VIS detector setting of λ=210 nm. All co mpounds were eluted with the two solvent systems ([…] as organic phase in Method I and CH3OH as organic phase in Method II) at a flow rate of 0.3 ml/min. Each experiment repeated for three times and the results are represented as mean±SD.
Ta b e l R 1 . Comparison of chemical stability of different compounds at room temperature and 60 ℃, respectively.

## Cc1cnc2nc1Nc1cccc(c1)COCC=CCOCc1cc(ccc1OCCN1CCCC1)N2 [Compound 3]
In vivo PK study in mice; mice, iv (5 mg/kg);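 further: mice dosed intravenously or orally, three animals per time point, plasma drug levels quantified by LC-MS/MS, PK parameters derived by noncompartmental analysis in Phoenix WinNonLin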
  T1/2: 0.52 h
  Tmax: 0.083 h
In vivo PK study in mice; mice, po (5 mg/kg);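 further: mice dosed intravenously or orally, three animals per time point, plasma drug levels quantified by LC-MS/MS, PK parameters derived by noncompartmental analysis in Phoenix WinNonLin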
  AUCinf: 114.69 ng·h/mL
  Cmax: 6.64 ng/mL
  T1/2: 10.07 h
  Tmax: 4.00 h
In vivo PK study in mice; 1 h, 5 mg/kg;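 further: mice dosed intravenously or orally, three animals per time point, plasma drug levels quantified by LC-MS/MS, PK parameters derived by noncompartmental analysis in Phoenix WinNonLin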
  concentration at time point (concentration-time data, Supplementary Fig. 8): 2.46 and 4.26 and 2.81
In vivo PK study in mice; 2 h, 5 mg/kg;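 further: mice dosed intravenously or orally, three animals per time point, plasma drug levels quantified by LC-MS/MS, PK parameters derived by noncompartmental analysis in Phoenix WinNonLin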
  concentration at time point (concentration-time data, Supplementary Fig. 8): 3.59 and 4.51 and 5.67
In vivo PK study in mice; 3 h, 5 mg/kg
  concentration at time point (concentration-time data, Supplementary Fig. 8): 4.59 and 4.64 and 5.68
In vivo PK study in mice; 4 h, 5 mg/kg
  concentration at time point (concentration-time data, Supplementary Fig. 8): 6.18 and 5.41 and 8.34
In vivo PK study in mice; 6 h, 5 mg/kg
  concentration at time point (concentration-time data, Supplementary Fig. 8): 4.85 and 6.09 and 5.97
In vivo PK study in mice; 8 h, 5 mg/kg
  concentration at time point (concentration-time data, Supplementary Fig. 8): 4.94 and 5.49 and 4.7
In vivo PK study in mice; 24 h
  concentration at time point (concentration-time data, Supplementary Fig. 8): 0
SET-2 cells; SET-2 cell lines, C 0.0977 μM, single wells of replicate 1 and replicate 2
  Inhibition (%): -27.9889% and -18.4466% and -28.7656% and 0.261% and 11.375% and 10.333%
SET-2 cells; SET-2 cell lines, C 0.1953 μM, single wells of replicate 1 and replicate 2
  Inhibition (%): -32.7601% and -23.4397% and -24.3273% and 16.816% and 17.164% and 5.470%
SET-2 cells; SET-2 cell lines, C 0.3906 μM, single wells of replicate 1 and replicate 2
  Inhibition (%): -24.5492% and -19.4452% and -33.2039% and 12.880% and 13.806% and 4.892%
SET-2 cells; SET-2 cell lines, C 0.7813 μM, single wells of replicate 1 and replicate 2
  Inhibition (%): -42.4133% and -41.7476% and -46.4078% and 9.291% and 13.806% and 8.828%
SET-2 cells; SET-2 cell lines, C 1.5625 μM, single wells of replicate 1 and replicate 2
  Inhibition (%): -43.4119% and -41.8585% and -40.6380% and 14.617% and 26.541% and 23.994%
SET-2 cells; SET-2 cell lines, C 3.1250 μM, single wells of replicate 1 and replicate 2
  Inhibition (%): -19.0014% and -10.7906% and -7.5728% and 27.931% and 19.711% and 22.952%
SET-2 cells; SET-2 cell lines, 6.2500 μM, single wells, replicates 1 and 2, 6.25 µM
  Inhibition (%): 17.1706% and 27.3786% and 29.5978% and 31.635% and 25.499% and 11.259%
SET-2 cells; SET-2 cell lines, 12.5000 μM, single wells, replicates 1 and 2, 12.5 µM
  Inhibition (%): 59.6671% and 60.0000% and 61.2205% and 43.097% and 40.782% and 34.993%
SET-2 cells; SET-2 cell lines, mean of 2 replicates, read-out: IC50/μM mean, cellular antiproliferative activity
  IC50: 11.1 µM
SET-2 cells; SET-2 cell lines, mean ± sd of 2 replicates, read-out: IC50/μM mean ± sd, cellular antiproliferative activity
  IC50: 11.1 ± 0.13 µM
SET-2 cells; SET-2 cell lines, single-replicate fits, read-out: IC50/μM (individual replicates), cellular antiproliferative activity
  IC50: 11 µM and 11.2 µM
SET-2 cells; SET-2 cells, 72 h, mean ± SD, read-out: Cellular Antiproliferative Activity (IC50) SET-2
  IC50: 11.1 ± 0.13 µM
HEL cells; HEL cell lines, 0.0977 μM
  Inhibition (%): 7.532% and 3.479% and 4.355% and 9.373% and 0.491% and 6.308%
HEL cells; HEL cell lines, 0.1953 μM
  Inhibition (%): 13.777% and 7.751% and 6.875% and 6.544% and 1.513% and 5.600%
HEL cells; HEL cell lines, 0.3906 μM
  Inhibition (%): 19.145% and 12.682% and 3.259% and 5.522% and 6.779% and 5.600%
HEL cells; HEL cell lines, 0.7813 μM
  Inhibition (%): 21.994% and 15.749% and 13.120% and 10.788% and 3.085% and 13.618%
HEL cells; HEL cell lines, 1.5625 μM
  Inhibition (%): 37.004% and 30.321% and 23.090% and 24.936% and 24.700% and 25.722%
HEL cells; HEL cell lines, 3.1250 μM, 3.125 µM
  Inhibition (%): 60.340% and 50.260% and 45.440% and 49.460% and 46.787% and 48.123%
HEL cells; HEL cell lines, 6.2500 μM, 6.25 µM
  Inhibition (%): 81.375% and 75.240% and 74.473% and 74.140% and 73.276% and 76.577%
HEL cells; HEL cell lines, 12.5000 μM, 12.5 µM
  Inhibition (%): 87.949% and 81.375% and 82.142% and 84.437% and 81.607% and 79.564%
HEL cells; HEL cell lines, mean of 2 replicates, read-out: IC50/μM mean, cellular antiproliferative activity
  IC50: 3.05 µM
HEL cells; HEL cell lines, single-replicate fits, read-out: IC50/μM (individual replicates), cellular antiproliferative activity
  IC50: 3.33 µM and 2.78 µM
HEL cells; HEL cells, 72 h, mean ± SD, read-out: Cellular Antiproliferative Activity (IC50) HEL
  IC50: 3.06 ± 0.39 µM
[1]; 60 ℃, 0 h
  purity after incubation in DMSO stock solution: 99.78±0.07%
[1]; 60 ℃, 2 h
  purity after incubation in DMSO stock solution: 99.46±0.04%
[1]; 60 ℃, 24 h
  purity after incubation in DMSO stock solution: 99.64±0.04%
[1]; 60 ℃, 48 h
  purity after incubation in DMSO stock solution: 99.66±0.06%
[1]; 60 ℃, 72 h
  purity after incubation in DMSO stock solution: 99.78±0.03%
[1]; Room Temperature, 0 h
  purity after incubation in DMSO stock solution: 99.68±0.05%
[1]; Room Temperature, 2 h
  purity after incubation in DMSO stock solution: 99.77±0.01%
[1]; Room Temperature, 24 h
  purity after incubation in DMSO stock solution: 99.68±0.07%
[1]; Room Temperature, 48 h
  purity after incubation in DMSO stock solution: 99.63±0.02%
[1]; Room Temperature, 72 h
  purity after incubation in DMSO stock solution: 99.64±0.10%

Source: paper PMC10382584, “Macrocyclization of linear molecules by deep learning to facilitate macrocyclic drug candidates discovery” (Nature Communications, 2023)
